pIC50: −log10 of the molar value. Read-outs that look alike come from different tables or passages of the source.
Columns and labels:
[1] = in vivo; cited from earlier work
[2] = target: T1, SERT (Homo sapiens, UniProt P31645); assay: SERT inhibition assay (Neurotransmitter Transportation Fluorescence assay, stable 5 HTT cells); format: cell-based
T1 construct: expressed in transfected cells
Method: SERT inhibition can be measured using a Neurotransmitter Transportation Fluorescence assay. Briefly, stable 5 HTT cells were prepared in a 384 microwell plate. Compounds were prepared in assay buffer (20 mM HEPES, 0.1% BSA). The compounds were added to the plated cells and incubated for 30 minutes at 37° C. 25 μL of dye solution (Molecular Devices Neurotransmitter Transporter Uptake Assay Kit) is added per well and incubated for 30 minutes at 37° C. The plates are then read on a plate reader.

[3] = Intestinal S9 metabolic stability, human; format: in vitro ADME
Method: (§1) A master solution was prepared according to the Table B2 below.
(§2) Add 222.5 μL of master solution and 25 μL of 10 mM NADPH solution to the incubation plates. Pre-warm for 10 min. The reaction was started with the addition of 2.5 μL of 100 μM control compound or test compound solutions. Verapamil, Midazolam and Testosterone were used as positive control in this study. The final concentration of control compounds and test compounds was 1 μM. Aliquots of 25 μL were taken from the reaction solution at 0.5, 5, 15, 30, 45 and 60 minutes. The reaction was stopped by the addition of 5 volumes of cold acetonitrile with IS (100 nM alprazolam, 200 nM caffeine and 100 nM tolbutamide). Samples were centrifuged at 3, 220 g for 30 minutes. Aliquot of 100 μL of the supernatant was mixed with 100 μL of ultra-pure H2O and then used for LC-MS/MS analysis.
(§3) All calculations were carried out using Microsoft Excel. Peak areas were determined from extracted ion chromatograms. The slope value, k, was determined by linear regression of the natural logarithm of the remaining percentage of the parent drug vs. incubation time curve. The in vitro half-life (in vitro t1/2) was determined from the slope value:
(§4) Conversion of the in vitro t1/2 (min) into the in vitro intrinsic clearance (in vitro CLint, in uL/min/mg protein) was done using the following equation (mean of duplicate determinations): […]
The metabolic stability of Compound 243 was tested in human, monkey, dog and rat (2 replicate measurement). For comparison, verapamil was tested in human and monkey (2 replicates), midazolam was tested in dog (2 replicates), and testosterone was tested in rat (2 replicates).

[4] = format: in vitro ADME, dog
Method: as §1, §2, §3, §4

[5] = Intestinal S9 metabolic stability, rat; format: in vitro ADME
Method: as §1, §2, §3, §4

T1 sequence (P31645 whole entry, species assumed): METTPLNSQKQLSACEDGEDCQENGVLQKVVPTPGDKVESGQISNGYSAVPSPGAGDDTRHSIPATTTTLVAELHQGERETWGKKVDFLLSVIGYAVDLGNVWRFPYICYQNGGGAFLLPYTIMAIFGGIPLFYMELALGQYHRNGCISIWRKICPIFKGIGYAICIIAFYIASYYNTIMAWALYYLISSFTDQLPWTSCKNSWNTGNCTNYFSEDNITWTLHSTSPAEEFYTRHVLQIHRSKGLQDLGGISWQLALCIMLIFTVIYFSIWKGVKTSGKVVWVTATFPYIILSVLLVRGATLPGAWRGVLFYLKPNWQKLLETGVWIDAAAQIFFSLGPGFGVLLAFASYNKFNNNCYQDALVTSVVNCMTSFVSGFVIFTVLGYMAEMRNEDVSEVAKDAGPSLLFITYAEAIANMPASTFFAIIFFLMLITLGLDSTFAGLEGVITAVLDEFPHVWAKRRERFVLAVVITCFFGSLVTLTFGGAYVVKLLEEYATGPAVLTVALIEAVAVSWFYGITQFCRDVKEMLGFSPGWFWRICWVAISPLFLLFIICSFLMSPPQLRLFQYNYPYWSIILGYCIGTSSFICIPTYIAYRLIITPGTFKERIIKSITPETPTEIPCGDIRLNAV

Structure (SMILES): COc1ccc([C@@]23CCC(=O)C[C@@H]2N(C)CC3)cc1OC [Compound 001, (−)-Mesembrine]
- half-life in plasma [1]: less than 2 hours

Structure (SMILES): COc1ccc([C@@]23CC=C(C)C[C@@H]2N(C)CC3)cc1OC [Compound 242, (3aS,7aS)-3a-(3,4-dimethoxyphenyl)-1,6-dimethyl-2,3,3a,4,7,7a-hexahydro-1H-indole]
- pIC50 ([2]; Table B1): > 7.30

Structure (SMILES): COc1ccc([C@@]23CCC(C)=C[C@@H]2N(C)CC3)cc1OC [Compound 243, (3aS,7aS)-3a-(3,4-dimethoxyphenyl)-1,6-dimethyl-2,3,3a,4,5,7a-hexahydro-1H-indole]
- pIC50 ([2]; Table B1): > 7.30
- median half-life, times greater than verapamil [3]: 33 times
- median CLint (micrograms/min/mg protein), times greater for verapamil than Compound 243 ([3]; human, 1 µM): more than 23 times
- half-life at 1 µM ([3]; human, s9): > 24 h
- median half-life, times greater than the half-life of midazolam [4]: more than 168 times
- median CLint (micrograms/min/mg protein), times greater for midazolam than Compound 243 ([4]; dog, 1 µM): more than 164 times
- median CLint (micrograms/min/mg protein), times greater for testosterone than Compound 243 ([5]; 1 µM): about 30 times
- median half-life, times greater than the half-life of testosterone ([5]; Compound 243 versus testosterone): about 30 times

Structure (SMILES): COc1ccc([C@@]23CC=C(C)C[C@@H]2N(C)CC3)cc1OC [drawing 203]
- pIC50 [2]: > 7.30

Structure (SMILES): COc1ccc([C@@]23CCC(C)=C[C@@H]2N(C)CC3)cc1OC [drawing 204]
- pIC50 [2]: > 7.30

Structure (SMILES): COc1ccc([C@@]23CCC(C)=C[C@@H]2N(C)CC3)cc1OC [drawing 205]
- pIC50 [2]: > 7.30

From patent US20260124173A1, “THERAPEUTIC ALKALOID COMPOUNDS” (Sensorium Therapeutics, Inc., priority 2023, published 2026)
